Columns and labels:
[1] = tested on: Beet Armyworm (Spodoptera exigua) ("BAW"), second instar larvae; assay: Bioassay on beet armyworm (BAW), 128-well diet tray assay; assay type: in vivo; details: Spodoptera exigua, read-out: BAW (Biological Results, rating)
How it was run: (§1)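 Read-out: percent larval mortality per well, averaged over 8 wells. Incubation 25° C., 14:10 L:D photoperiod, 5–7 days, trays sealed with clear adhesive cover.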

[2] = tested on: Cabbage Looper (Trichoplusia ni) ("CL"), second instar larvae; assay: Bioassay on cabbage looper (CL), 128-well diet tray assay; assay type: in vivo; details: Trichoplusia ni, read-out: CL (Biological Results, rating)
How it was run: as §1

Compound	pest or weed control at 50 µg/cm2 [1] [%]	pest or weed control at 50 µg/cm2 [2] [%]
CCCc1ccc(C)cc1N1C(=O)CS/C1=N\C(=O)Nc1ccc(-c2ncn(-c3ccc(OC(F)(F)F)cc3)n2)cc1C [Compound J53, (Z)-1-(3-(5-Methyl-2-propylphenyl)-4-oxothiazolidin-2-ylidene)-3-(2-methyl-4-(1-(4-(trifluoromethoxy)phenyl)-1H-1,2,4-triazol-3-yl)phenyl)urea]	50 to 100	50 to 100
COc1ccc(C(C)C)c(N2C(=O)CS/C2=N\C(=O)Nc2ccc(-c3ncn(-c4ccc(OC(F)(F)F)cc4)n3)cc2C)c1 [Compound J54, (Z)-1-(3-(2-Isopropyl-5-methoxyphenyl)-4-oxothiazolidin-2-ylidene)-3-(2-methyl-4-(1-(4-(trifluoromethoxy)phenyl)-1H-1,2,4-triazol-3-yl)phenyl)urea]	50 to 100	50 to 100
Cc1ccc(OCC(F)(F)F)c(N2C(=O)CS/C2=N\C(=O)Nc2ccc(-c3ncn(-c4ccc(OC(F)(F)F)cc4)n3)cc2C)c1 [Compound J55, (Z)-1-(3-(5-Methyl-2-(2,2,2-trifluoroethoxy)phenyl)-4-oxothiazolidin-2-ylidene)-3-(2-methyl-4-(1-(4-(trifluoromethoxy)phenyl)-1H-1,2,4-triazol-3-yl)phenyl)urea]	50 to 100	50 to 100
Cc1ccc(OCCC(F)(F)F)c(N2C(=O)CS/C2=N\C(=O)Nc2ccc(-c3ncn(-c4ccc(OC(F)(F)F)cc4)n3)cc2C)c1 [Compound J56, (Z)-1-(3-(5-Methyl-2-(3,3,3-trifluoropropoxy)phenyl)-4-oxothiazolidin-2-ylidene)-3-(2-methyl-4-(1-(4-(trifluoromethoxy)phenyl)-1H-1,2,4-triazol-3-yl)phenyl)urea]	50 to 100	50 to 100
Cc1ccc(C(C)C)c(N2C(=O)CS/C2=N\C(=O)Nc2ccc(-c3ncn(-c4ccc(OCC(F)(F)F)cc4)n3)cc2F)c1 [Compound J57, (Z)-1-(2-Fluoro-4-(1-(4-(2,2,2-trifluoroethoxy)phenyl)-1H-1,2,4-triazol-3-yl)phenyl)-3-(3-(2-isopropyl-5-methylphenyl)-4-oxothiazolidin-2-ylidene)urea]	50 to 100	50 to 100
COc1ccc(C(C)C)c(N2C(=O)CS/C2=N\C(=O)Nc2ccc(-c3ncn(-c4ccc(OCC(F)(F)F)cc4)n3)cc2F)c1 [Compound J58, (Z)-1-(2-Fluoro-4-(1-(4-(2,2,2-trifluoroethoxy)phenyl)-1H-1,2,4-triazol-3-yl)phenyl)-3-(3-(2-isopropyl-5-methoxyphenyl)-4-oxothiazolidin-2-ylidene)urea]	50 to 100	50 to 100
CCOc1ccc(C)cc1N1C(=O)CS/C1=N\C(=O)Nc1ccc(-c2ncn(-c3ccc(OC(F)(F)F)cc3)n2)cc1F [Compound J59, (Z)-1-(3-(2-Ethoxy-5-methylphenyl)-4-oxothiazolidin-2-ylidene)-3-(2-fluoro-4-(1-(4-(trifluoromethoxy)phenyl)-1H-1,2,4-triazol-3-yl)phenyl)urea]	50 to 100	50 to 100
COC(C)c1ccc(C)cc1N1C(=O)CS/C1=N\C(=O)Nc1ccc(-c2ncn(-c3ccc(OC(F)(F)F)cc3)n2)cc1C (centres unmarked) [Compound J60, (Z)-1-(3-(2-(1-Methoxyethyl)-5-methylphenyl)-4-oxothiazolidin-2-ylidene)-3-(2-methyl-4-(1-(4-(trifluoromethoxy)phenyl)-1H-1,2,4-triazol-3-yl)phenyl)urea]	50 to 100	50 to 100
Cc1ccc(C(C)C)c(N2C(=O)CS/C2=N\C(=O)Nc2ccc(-c3ncn(-c4ccc(C(F)(F)F)cc4)n3)cc2F)c1 [Compound J61, (Z)-1-(2-Fluoro-4-(1-(4-(trifluoromethyl)phenyl)-1H-1,2,4-triazol-3-yl)phenyl)-3-(3-(2-isopropyl-5-methylphenyl)-4-oxothiazolidin-2-ylidene)urea]	50 to 100	50 to 100
COC(C)c1ccc(C)cc1N1C(=O)CS/C1=N\C(=O)Nc1ccc(-c2ncn(-c3ccc(C(F)(F)F)cc3)n2)cc1F (centres unmarked) [Compound J62, (Z)-1-(2-Fluoro-4-(1-(4-(trifluoromethyl)phenyl)-1H-1,2,4-triazol-3-yl)phenyl)-3-(3-(2-(1-methoxyethyl)-5-methylphenyl)-4-oxothiazolidin-2-ylidene)urea]	50 to 100	50 to 100
Cc1ccc(OCC(F)(F)F)c(N2C(=O)CS/C2=N\C(=O)Nc2ccc(-c3ncn(-c4ccc(C(F)(F)F)cc4)n3)cc2F)c1 [Compound J63, (Z)-1-(2-Fluoro-4-(1-(4-(trifluoromethyl)phenyl)-1H-1,2,4-triazol-3-yl)phenyl)-3-(3-(5-methyl-2-(2,2,2-trifluoroethoxy)phenyl)-4-oxothiazolidin-2-ylidene)urea]	50 to 100	50 to 100
Cc1ccc(OCCC(F)(F)F)c(N2C(=O)CS/C2=N\C(=O)Nc2ccc(-c3ncn(-c4ccc(C(F)(F)F)cc4)n3)cc2F)c1 [Compound J64, (Z)-1-(2-Fluoro-4-(1-(4-(trifluoromethyl)phenyl)-1H-1,2,4-triazol-3-yl)phenyl)-3-(3-(5-methyl-2-(3,3,3-trifluoropropoxy)phenyl)-4-oxothiazolidin-2-ylidene)urea]	50 to 100	50 to 100
CCC(C)c1ccc(C)cc1N1C(=O)CS/C1=N\C(=O)Nc1ccc(-c2ncn(-c3ccc(C(F)(F)F)cc3)n2)cc1F (centres unmarked) [Compound J65, (Z)-1-(3-(2-(sec-Butyl)-5-methylphenyl)-4-oxothiazolidin-2-ylidene)-3-(2-fluoro-4-(1-(4-(trifluoromethyl)phenyl)-1H-1,2,4-triazol-3-yl)phenyl)urea]	50 to 100	50 to 100
COCc1ccc(C)cc1N1C(=O)CS/C1=N\C(=O)Nc1ccc(-c2ncn(-c3ccc(OC(F)(F)F)cc3)n2)cc1C [Compound J67, (Z)-1-(3-(2-(Methoxymethyl)-5-methylphenyl)-4-oxothiazolidin-2-ylidene)-3-(2-methyl-4-(1-(4-(trifluoromethoxy)phenyl)-1H-1,2,4-triazol-3-yl)phenyl)urea]	50 to 100	50 to 100
Cc1cc(-c2ncn(-c3ccc(OC(F)(F)F)cc3)n2)ccc1NC(=O)/N=C1\SCC(=O)N1c1cc(N(C)C)ccc1C(C)C [Compound J68, (Z)-1-(3-(5-(Dimethylamino)-2-isopropylphenyl)-4-oxothiazolidin-2-ylidene)-3-(2-methyl-4-(1-(4-(trifluoromethoxy)phenyl)-1H-1,2,4-triazol-3-yl)phenyl)urea]	50 to 100	50 to 100
CCN(CC)c1ccc(C(C)C)c(N2C(=O)CS/C2=N\C(=O)Nc2ccc(-c3ncn(-c4ccc(OC(F)(F)F)cc4)n3)cc2F)c1 [Compound J69, (Z)-1-(3-(5-(diethylamino)-2-isopropylphenyl)-4-oxothiazolidin-2-ylidene)-3-(2-fluoro-4-(1-(4-(trifluoromethoxy)phenyl)-1H-1,2,4-triazol-3-yl)phenyl)urea]	50 to 100	50 to 100
Cc1ccc(C(C)C)c(N2C(=O)CS/C2=N\C(=O)Nc2c(F)cc(-c3ncn(-c4ccc(OC(F)(F)F)cc4)n3)cc2F)c1 [Compound J78, (Z)-1-(2,6-Difluoro-4-(1-(4-(trifluoromethoxy)phenyl)-1H-1,2,4-triazol-3-yl)phenyl)-3-(3-(2-isopropyl-5-methylphenyl)-4-oxothiazolidin-2-ylidene)urea]	50 to 100	50 to 100
Cc1ccc(OCC(F)(F)F)c(N2C(=O)CS/C2=N\C(=O)Nc2c(F)cc(-c3ncn(-c4ccc(OC(F)(F)F)cc4)n3)cc2F)c1 [Compound J79, (Z)-1-(2,6-Difluoro-4-(1-(4-(trifluoromethoxy)phenyl)-1H-1,2,4-triazol-3-yl)phenyl)-3-(3-(5-methyl-2-(2,2,2-trifluoroethoxy)phenyl)-4-oxothiazolidin-2-ylidene)urea]	50 to 100	50 to 100
Cc1ccc(OCCCC(F)(F)F)c(N2C(=O)CS/C2=N\C(=O)Nc2c(F)cc(-c3ncn(-c4ccc(OC(F)(F)F)cc4)n3)cc2F)c1 [Compound J80, (Z)-1-(2,6-Difluoro-4-(1-(4-(trifluoromethoxy)phenyl)-1H-1,2,4-triazol-3-yl)phenyl)-3-(3-(5-methyl-2-(4,4,4-trifluorobutoxy)phenyl)-4-oxothiazolidin-2-ylidene)urea]	50 to 100	50 to 100
COC(C)c1ccc(C)cc1N1C(=O)CS/C1=N\C(=O)Nc1c(F)cc(-c2ncn(-c3ccc(OC(F)(F)F)cc3)n2)cc1F (centres unmarked) [Compound J81, (Z)-1-(2,6-Difluoro-4-(1-(4-(trifluoromethoxy)phenyl)-1H-1,2,4-triazol-3-yl)phenyl)-3-(3-(2-(1-methoxyethyl)-5-methylphenyl)-4-oxothiazolidin-2-ylidene)urea]	50 to 100	50 to 100
CC(C)c1ccc(N(C)C)cc1N1C(=O)CS/C1=N\C(=O)Nc1c(F)cc(-c2ncn(-c3ccc(OC(F)(F)F)cc3)n2)cc1F [Compound J82, (Z)-1-(2,6-Difluoro-4-(1-(4-(trifluoromethoxy)phenyl)-1H-1,2,4-triazol-3-yl)phenyl)-3-(3-(5-(dimethylamino)-2-isopropylphenyl)-4-oxothiazolidin-2-ylidene)urea]	50 to 100	50 to 100
CCc1cc(-c2ncn(-c3ccc(OC(F)(F)F)cc3)n2)ccc1NC(=O)/N=C1\SCC(=O)N1c1cc(N(C)C)ccc1C(C)C [Compound J83, (Z)-1-(3-(5-(Dimethylamino)-2-isopropylphenyl)-4-oxothiazolidin-2-ylidene)-3-(2-ethyl-4-(1-(4-(trifluoromethoxy)phenyl)-1H-1,2,4-triazol-3-yl)phenyl)urea]	50 to 100	50 to 100

From patent US20230077362A1 (CORTEVA AGRISCIENCE LLC, priority 2019, published 2023)
